Results taken from US20110092439A1, “METHOD OF PROMOTING WOUND HEALING” (priority 2008, published 2011).
Entries after “also recorded” stand apart in the source; their conditions may differ.

Columns and labels:
[1] = Canine gingiva study: RLX migration and degradation after gingival injection (SELDI-TOF MS); format: in vivo, dog; conditions: for migration of RLX through the gingiva: after gingival injection; for concentration of H2 RLX detected in treated gingiva: site of injection
Description: The aim of this study was to determine the rate of RLX migration and extent of degradation after gingival injections. […] Employing a dog model, RLX was administered and tissue punch biopsies were collected at the site of injection and 0.5, 1 and 2 cm from the site of injection. Tissue was collected at several time points including 1, 2 and 4 hrs after injection. Protein was extracted from the gingival biopsies and analysed via ProteinChip technology (Surface Enhanced Laser Desorption/Ionization Time-of-Flight Mass Spectrometry, SELDI-TOF MS), which combines two well-established methods of solid phase chromatography and TOF-MS into an integrated platform. ProteinChip arrays were coated with anti-H2 RLX Ab, allowing the specific capture of RLX and associated breakdown/modified products.
Design of Drug. Gingival injections were administered (25 μg H2 RLX/100 μl, 41 μM) and tissue was collected at several positions including the site of injection and 0.5, 1 and 2 cm from the site of injection. Tissue was collected 1, 2 and 3 hrs after injection.
a) Protein Extraction and Quantitation. Frozen gingival biopsies were homogenized in extraction buffer (10 μl/mg tissue) containing 10 mM Tris-HCl, 10 mM NaCl, 0.1% TFA and protease inhibitor (complete mini, Roche). The extract was centrifuged (6000×g) for 10 min and the supernatant was collected, aliquoted and stored at −80° C. Total protein concentration was determined using the Bradford assay. Protein concentrations ranged from 1.4 mg/ml to 2.8 mg/ml, all samples were standardized to 1.4 mg/ml in extraction buffer.
b) SELDI-TOF MS analysis—Analysis of RLX treated gingiva on PG20 arrays. Anti-H2 RLX Ab (2 μl/0.25 mg/ml; Genentech) or control IgG (Ciphergen Biosystems) was applied to each spot of a PS20 array which had been pre-coated with Protein G (Ciphergen Biosystems). After antibody binding, the chip was washed once with PBS/0.5% Triton X-100 for 5 min with agitation (5 μl per spot), followed by two PBS washes. Dog gingiva extracts (3 μl/1.4 mg/ml) were applied to each spot and incubated for 4 hrs. Non-specifically bound proteins were removed by sequentially washing with PBS/0.5% Triton X-100, PBS and 1 mM HEPES, pH 7.2. The chips were air dried and 1 μl of 50% saturated sinapinic acid in 50% (v/v) acetonitrile, 0.5% trifluoroacetic acid was applied onto each spot twice, arrays were air dried between each application. Chips were subsequently analysed by SELDI-TOF MS (Ciphergen Biosystems) using the following settings, laser 220 and sensitivity 9.
c) Generation of H2 RLX Std Curve on PG20 arrays. H2 RLX (batch number 11835-89) was spiked into control dog gingiva (1.4 mg/ml) at different concentrations, including 100 nM, 50 nM, 12.5 nM, 6.25 nM, 3.125 nM and 1.56 nM and analysed as described above.

tooth movement = conditions: RLX via gingival injections, dog models; cited from earlier work
wounded sites = conditions: systemic relaxin, rats; cited from earlier work
[2] = Canine gingiva study: RLX migration and degradation after gingival injection (SELDI-TOF MS); format: in vivo, dog
[3] = tested on: 20×6 mm incisional wounds on the back; assay: Porcine skin wound study; format: in vivo, juvenile pigs
Source text: Overview of the Animal Study. In selecting the appropriate animal for this study, a pig was selected because of the anatomical similarities between pig skin and human skin. In fact, pig wound healing has been used in numerous studies to simulate human skin (Sullivan et al., Wound Repair Regen. 9: 66-76, 2001).
Design of Study. In this study, juvenile pigs were oriented with twelve wound sites per animal—20×6 mm incisional wounds on the back—over the course of a six week study (see FIG. 2). Systemic relaxin was delivered via mini-pumps to achieve 20 ng/mL serum concentrations. Topical formulations were prepared by Dow Pharma, and consisted of propylene glycol and ethanol, which contributed to good long term stability of the therapeutic agent. Dosages consisting of placebo, 0.5 mg/mL (low dose), and 2.5 mg/mL (high dose) were prepared. The goals of the study were to assess the safety of topical relaxin on wound healing and to determine the efficacy of relaxin as a treatment for wound healing and/or scar formation. During the first week, irrigation was performed once daily. During weeks 2-3, topical formulation was applied twice daily, and during weeks […], topical formulation was applied once daily.
Design of Drug. The study drug was relaxin (produced by recombinant technology). Recombinant relaxin is identical to the native human hormone H2 relaxin, produced using a recombinant single chain process. The active test article may be aseptically diluted to the desired concentration with the acetate diluent (20 mM sodium acetate, pH 5.0).
Study Procedures. Referring to FIG. 3 which depicts the back of a pig with incisions according to the experimental design described herein at the completion of six weeks, the wound in Section 3 was irrigated with relaxin construct during the first week, and subsequently treated with high dose topical relaxin formulation during weeks 2-6 as described above. Sections 4, 5, and 6 received no irrigation during week 1. Section 4 was treated with placebo. Section 5 was treated with low dose topical formulation, and Section 6 was treated with high dose topical formulation.
Cosmetic appearance of skin. Visual rankings of wound pictures were conducted by neutral observers who evaluated scabs during early wound healing (days 5-7) and scars at the end of the study (see FIG. 4). […] The results of this visual wound assessment determined that 89% of the time a relaxin treatment group was selected in the top three. Only 11% of the time, a group not treated with relaxin was selected in the top three.
A cosmetic score was also determined by a professional dermatologist at weeks 2, 4, and 6. The cosmetic score has five components: (1) color—matching with surrounding skin; (2) texture—no hardness; (3) distortion—no distortion of nearby skin; (4) contour—flush with surrounding skin; (5) global—no hypertrophy or keloid formation. During this dermatological assessment, evaluation at time 2 weeks was obscured by scabs, so the data for cosmetic scores was collected from evaluation at weeks 4 and 6 (see FIG. 5). […] In the bottom profile, the scar is visible.
Histological evaluation. A professional histopathologist evaluated the pathology of the treatments for such indications as granulation, inflammation, and necrosis. In judging granulation tissue, it is considered that early response to wound includes invasion of the site by fibroblasts, inflammatory cells, and new blood vessels. Over time, this resolves to more normal tissue as the site heals. Chronic inflammation characterized by the presence of macrophages, giant cells, lymphocytes, and PMNs indicated adverse reaction. Minor factors such as keratosis (formation of keratin layer outside the epidermis) and acanthosis (thickening of the epidermal layer) are also considered. […]

[4] = systemic relaxin vs no systemic relaxin
[5] = systemic relaxin, after six weeks, blinded histopathology

## relaxin
[1]; 1 hr time point
  RLX detection 0.5 cm from the site of injection: detected
  RLX detection 1 cm from the site of injection: not detected
  RLX detection 2 cm from the site of injection: not detected
[1]
  migration of RLX through the gingiva: stayed close to the injection site
[1]; listed as RLX
  migration of RLX through the gingiva: stayed close to the injection site; also recorded: limited migration
[1]; 1 hr after gingival injection of 25 μg H2 RLX/100 μl
  concentration of H2 RLX detected in treated gingiva: 90 nM
[1]; 2 hrs after gingival injection of 25 μg H2 RLX/100 μl
  concentration of H2 RLX detected in treated gingiva: 78 nM
Tooth movement
  relapse: prevent relapse
  tooth movement: speed tooth movement
Wounded sites
  VEGF and bFGF transcripts: upregulation
  new blood vessel formation selectively at wounded sites: increased
[2]; 2 and 4 hrs
  RLX detection at the remaining time points: only detected at the site of injection
[2]; site of injection, 4 hrs after gingival injection of 25 μg H2 RLX/100 μl
  concentration of H2 RLX detected in treated gingiva: 21 nM
[3]; after about six weeks of treatment
  blood vessels in the wound site: overall reduction
[3]; blinded neutral observers ranking best three of six groups of wound pictures
  relaxin treatment group selected in the top three in visual wound assessment: 89 % of the time
[3]; dose range 10-960 μg/kg/day
  adverse effects / tolerability over dose range: no relevant adverse effects; also recorded: well-tolerated
[3]; irrigation week 1 then high dose topical weeks 2-6
  wound healing / cosmetic ranking with irrigation relaxin treatment versus topical only: particularly efficacious; also recorded: ranked higher overall
[3]; low dose 0.5 mg/mL and high dose 2.5 mg/mL topical formulation, six weeks
  wound healing with topical-only relaxin compared to placebo: improved wound healing
[3]; pig, in vivo
  adverse effects associated with relaxin treatment: no adverse effects
  necrosis or inflammation associated with relaxin treatment: no necrosis or inflammation
[3]; relaxin treatment, six weeks, no relaxin: severe scarring
  scarring on histopathological slide: mild scarring
[3]; some indications
  wound healing after systemic treatment compared to topical administration: better wound healing
[3]; [4]
  collagen organization (objective collagen scoring, red pixel ratio): significantly better
  composite wound healing score (three point collagen scale): significantly improved
[3]; systemic relaxin, after day six
  wound appearance versus control pig: healed faster, better
[3]; [5]
  chronic inflammation in wound sites: reduces; also recorded: significantly reduced
  granulation tissue in wound sites: reduces; also recorded: significantly reduced
[3]; systemic relaxin, six weeks of treatment, vs placebo (red scar visible)
  scar visibility at wound site: invisible; also recorded: no scar was visible
